{
  "source": "paper PMC8401933",
  "about": "(Molecules, 2021)",
  "assay_in_all_cases": "KINOMEscan binding",
  "details_in_all_cases": "read-out: Percent Control",
  "key": {"SRPK1": {"molecular_target": "T1, SRPK1 (Homo sapiens, UniProt Q96SB4)", "T1 construct": "purchased Eurofins DiscoverX KINOMEscan"}, "BLK": {"molecular_target": "T2, BLK (Homo sapiens, UniProt P51451)", "T2 construct": "purchased Eurofins DiscoverX KINOMEscan"}, "CDC2L5": {"molecular_target": "T3, CDC2L5 (Homo sapiens, UniProt Q14004)", "T3 construct": "purchased Eurofins DiscoverX KINOMEscan", "experimental": "(§1) This platform contains 468 recombinant human kinases (more than 80% coverage) in which 56 disease-relevant mutants are included. The recombinant DNA-tagged kinases were incubated with the probe ligands immobilized to a solid support, and then the level of the captured kinases on the solid support was measured using quantitative PCR."}, "PRP4": {"molecular_target": "T4, PRP4 (Homo sapiens, UniProt Q13523)", "T4 construct": "purchased Eurofins DiscoverX KINOMEscan", "experimental": "as §1"}, "FLT3(D835H)": {"molecular_target": "T5, FLT3(D835H) (Homo sapiens, UniProt P36888, D835H)", "T5 construct": "purchased Eurofins DiscoverX KINOMEscan"}, "TTK": {"molecular_target": "T6, TTK (Homo sapiens, UniProt P33981)", "T6 construct": "purchased Eurofins DiscoverX KINOMEscan"}, "[1]": {"molecular_target": "T7, JAK1(JH2domain-pseudokinase) (Homo sapiens, UniProt P23458)", "T7 construct": "JAK1(JH2domain-pseudokinase); purchased Eurofins DiscoverX KINOMEscan", "T7 sequence (P23458 545-874 limits assumed)": "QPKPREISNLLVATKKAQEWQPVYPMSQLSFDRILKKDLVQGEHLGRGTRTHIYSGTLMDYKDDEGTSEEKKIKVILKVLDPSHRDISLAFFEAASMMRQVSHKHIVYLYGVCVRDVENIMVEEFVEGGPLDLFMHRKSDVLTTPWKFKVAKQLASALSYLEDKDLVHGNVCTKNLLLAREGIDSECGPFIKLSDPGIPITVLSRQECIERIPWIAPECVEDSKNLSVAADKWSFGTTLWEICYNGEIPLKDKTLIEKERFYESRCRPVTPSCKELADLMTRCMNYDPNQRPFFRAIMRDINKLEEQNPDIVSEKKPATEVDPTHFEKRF"}, "FLT3(D835Y)": {"molecular_target": "T8, FLT3(D835Y) (Homo sapiens, UniProt P36888, D835Y)", "T8 construct": "purchased Eurofins DiscoverX KINOMEscan"}, "FLT3(K663Q)": {"molecular_target": "T9, FLT3(K663Q) (Homo sapiens, UniProt P36888, K663Q)", "T9 construct": "purchased Eurofins DiscoverX KINOMEscan"}, "RIOK2": {"molecular_target": "T10, RIOK2 (Homo sapiens, UniProt Q9BVS4)", "T10 construct": "purchased Eurofins DiscoverX KINOMEscan"}, "LKB1": {"molecular_target": "T11, LKB1 (Homo sapiens, UniProt Q15831)", "T11 construct": "purchased Eurofins DiscoverX KINOMEscan"}, "DYRK1B": {"molecular_target": "T12, DYRK1B (Homo sapiens, UniProt Q9Y463)", "T12 construct": "purchased Eurofins DiscoverX KINOMEscan"}, "NEK3": {"molecular_target": "T13, NEK3 (Homo sapiens, UniProt P51956)", "T13 construct": "purchased Eurofins DiscoverX KINOMEscan"}, "JNK2": {"molecular_target": "T14, JNK2 (Homo sapiens, UniProt P45984)", "T14 construct": "purchased Eurofins DiscoverX KINOMEscan"}, "PFCDPK1(P.falciparum)": {"molecular_target": "T15, PFCDPK1(P.falciparum) (Plasmodium falciparum, UniProt P62344)", "T15 construct": "purchased Eurofins DiscoverX KINOMEscan"}, "CAMK2D": {"molecular_target": "T16, CAMK2D (Homo sapiens, UniProt Q13557)", "T16 construct": "purchased Eurofins DiscoverX KINOMEscan"}, "LIMK2": {"molecular_target": "T17, LIMK2 (Homo sapiens, UniProt P53671)", "T17 construct": "purchased Eurofins DiscoverX KINOMEscan"}, "NDR1": {"molecular_target": "T18, NDR1 (Homo sapiens, UniProt Q15208)", "T18 construct": "purchased Eurofins DiscoverX KINOMEscan"}, "KIT(L576P)": {"molecular_target": "T19, KIT(L576P) (Homo sapiens, UniProt P10721, L576P)", "T19 construct": "purchased Eurofins DiscoverX KINOMEscan", "T19 sequence (P10721 26-976 L576P)": "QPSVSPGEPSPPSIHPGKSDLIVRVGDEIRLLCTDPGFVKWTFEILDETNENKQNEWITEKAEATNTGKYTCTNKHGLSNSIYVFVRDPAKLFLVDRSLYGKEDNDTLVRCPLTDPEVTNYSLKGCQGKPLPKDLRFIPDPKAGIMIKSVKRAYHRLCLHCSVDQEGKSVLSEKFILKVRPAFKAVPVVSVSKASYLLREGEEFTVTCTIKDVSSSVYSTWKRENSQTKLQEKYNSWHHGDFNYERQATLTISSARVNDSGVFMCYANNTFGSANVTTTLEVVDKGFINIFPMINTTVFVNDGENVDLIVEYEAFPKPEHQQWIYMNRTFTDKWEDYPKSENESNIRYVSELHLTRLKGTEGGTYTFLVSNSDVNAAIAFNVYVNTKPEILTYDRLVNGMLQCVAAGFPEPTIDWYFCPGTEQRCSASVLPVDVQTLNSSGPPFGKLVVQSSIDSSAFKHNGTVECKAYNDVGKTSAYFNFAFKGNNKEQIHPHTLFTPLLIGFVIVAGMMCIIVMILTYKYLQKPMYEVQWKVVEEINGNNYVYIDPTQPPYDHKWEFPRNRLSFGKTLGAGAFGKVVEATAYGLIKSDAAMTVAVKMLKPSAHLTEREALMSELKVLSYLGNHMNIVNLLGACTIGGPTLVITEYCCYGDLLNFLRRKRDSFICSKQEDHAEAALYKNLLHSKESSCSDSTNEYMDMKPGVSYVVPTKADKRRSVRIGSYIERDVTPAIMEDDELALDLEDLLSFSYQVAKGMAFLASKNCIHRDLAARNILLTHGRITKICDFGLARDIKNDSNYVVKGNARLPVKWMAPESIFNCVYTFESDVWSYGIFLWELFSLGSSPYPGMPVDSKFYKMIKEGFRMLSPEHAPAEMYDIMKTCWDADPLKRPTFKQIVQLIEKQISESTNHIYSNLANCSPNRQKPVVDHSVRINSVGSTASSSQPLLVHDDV"}, "PAK3": {"molecular_target": "T20, PAK3 (Homo sapiens, UniProt O75914)", "T20 construct": "purchased Eurofins DiscoverX KINOMEscan"}, "JNK3": {"molecular_target": "T21, JNK3 (Homo sapiens, UniProt P53779)", "T21 construct": "purchased Eurofins DiscoverX KINOMEscan"}, "PIK3CA(E542K)": {"molecular_target": "T22, PIK3CA(E542K) (Homo sapiens, UniProt P42336, E542K)", "T22 construct": "purchased Eurofins DiscoverX KINOMEscan", "T22 sequence (P42336 whole entry E542K)": "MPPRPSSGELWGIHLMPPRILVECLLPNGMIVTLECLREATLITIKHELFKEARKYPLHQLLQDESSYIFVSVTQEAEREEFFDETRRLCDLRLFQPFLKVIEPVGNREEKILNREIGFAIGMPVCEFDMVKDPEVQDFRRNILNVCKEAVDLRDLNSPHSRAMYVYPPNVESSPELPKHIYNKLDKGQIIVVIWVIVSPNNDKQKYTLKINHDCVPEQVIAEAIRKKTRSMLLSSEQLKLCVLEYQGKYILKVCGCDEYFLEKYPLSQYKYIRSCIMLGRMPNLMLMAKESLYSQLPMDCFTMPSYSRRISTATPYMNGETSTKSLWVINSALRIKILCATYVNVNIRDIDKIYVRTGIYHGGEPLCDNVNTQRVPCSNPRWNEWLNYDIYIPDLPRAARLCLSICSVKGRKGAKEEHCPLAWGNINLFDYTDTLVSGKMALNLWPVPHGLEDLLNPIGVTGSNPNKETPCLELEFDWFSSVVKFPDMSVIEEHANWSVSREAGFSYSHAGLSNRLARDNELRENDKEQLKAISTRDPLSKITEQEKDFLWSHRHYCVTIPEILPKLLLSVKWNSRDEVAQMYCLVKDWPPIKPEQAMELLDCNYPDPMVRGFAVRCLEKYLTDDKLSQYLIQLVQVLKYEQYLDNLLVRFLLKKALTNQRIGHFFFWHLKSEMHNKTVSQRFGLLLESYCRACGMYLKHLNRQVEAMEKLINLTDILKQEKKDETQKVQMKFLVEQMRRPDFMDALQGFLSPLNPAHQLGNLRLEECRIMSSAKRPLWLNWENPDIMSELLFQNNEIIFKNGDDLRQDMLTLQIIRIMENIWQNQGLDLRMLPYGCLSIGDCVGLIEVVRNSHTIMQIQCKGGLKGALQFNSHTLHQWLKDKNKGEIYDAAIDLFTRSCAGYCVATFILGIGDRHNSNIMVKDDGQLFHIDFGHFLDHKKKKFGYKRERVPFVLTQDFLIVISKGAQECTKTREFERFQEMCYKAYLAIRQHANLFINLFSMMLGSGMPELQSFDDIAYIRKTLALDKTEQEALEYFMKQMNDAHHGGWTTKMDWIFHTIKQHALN"}, "DCAMKL1": {"molecular_target": "T23, DCAMKL1 (Homo sapiens, UniProt O15075)", "T23 construct": "purchased Eurofins DiscoverX KINOMEscan"}, "NLK": {"molecular_target": "T24, NLK (Homo sapiens, UniProt Q9UBE8)", "T24 construct": "purchased Eurofins DiscoverX KINOMEscan"}, "YANK1": {"molecular_target": "T25, YANK1 (Homo sapiens, UniProt Q8WU08)", "T25 construct": "purchased Eurofins DiscoverX KINOMEscan"}, "TNK2": {"molecular_target": "T26, TNK2 (Homo sapiens, UniProt Q07912)", "T26 construct": "purchased Eurofins DiscoverX KINOMEscan"}, "PKNB(M.tuberculosis)": {"molecular_target": "T27, PKNB(M.tuberculosis) (Mycobacterium tuberculosis, UniProt P9WI81)", "T27 construct": "purchased Eurofins DiscoverX KINOMEscan"}, "BRAF": {"molecular_target": "T28, BRAF (Homo sapiens, UniProt P15056)", "T28 construct": "purchased Eurofins DiscoverX KINOMEscan"}, "DYRK2": {"molecular_target": "T29, DYRK2 (Homo sapiens, UniProt Q92630)", "T29 construct": "purchased Eurofins DiscoverX KINOMEscan"}, "PIK3CA(C420R)": {"molecular_target": "T30, PIK3CA(C420R) (Homo sapiens, UniProt P42336, C420R)", "T30 construct": "purchased Eurofins DiscoverX KINOMEscan", "T30 sequence (P42336 whole entry C420R)": "as the sequence (P42336 whole entry E542K) above, with C420R, K542E counted along it"}, "WNK2": {"molecular_target": "T31, WNK2 (Homo sapiens, UniProt Q9Y3S1)", "T31 construct": "purchased Eurofins DiscoverX KINOMEscan"}, "BMPR1A": {"molecular_target": "T32, BMPR1A (Homo sapiens, UniProt P36894)", "T32 construct": "purchased Eurofins DiscoverX KINOMEscan", "T32 sequence (P36894 24-532)": "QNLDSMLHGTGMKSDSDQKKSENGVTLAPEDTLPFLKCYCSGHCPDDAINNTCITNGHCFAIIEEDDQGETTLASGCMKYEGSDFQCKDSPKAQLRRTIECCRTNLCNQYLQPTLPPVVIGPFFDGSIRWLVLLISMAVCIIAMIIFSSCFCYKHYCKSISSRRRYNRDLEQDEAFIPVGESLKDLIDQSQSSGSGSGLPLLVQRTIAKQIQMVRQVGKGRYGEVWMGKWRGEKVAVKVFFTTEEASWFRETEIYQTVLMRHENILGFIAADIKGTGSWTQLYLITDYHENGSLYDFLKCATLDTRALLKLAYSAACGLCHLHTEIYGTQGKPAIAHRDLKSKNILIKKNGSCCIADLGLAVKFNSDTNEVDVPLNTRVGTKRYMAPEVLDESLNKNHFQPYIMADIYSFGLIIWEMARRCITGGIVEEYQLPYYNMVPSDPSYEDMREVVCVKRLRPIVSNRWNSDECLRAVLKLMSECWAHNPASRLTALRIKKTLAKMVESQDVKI"}, "ACVR2B": {"molecular_target": "T33, ACVR2B (Homo sapiens, UniProt Q13705)", "T33 construct": "purchased Eurofins DiscoverX KINOMEscan", "T33 sequence (Q13705 19-512)": "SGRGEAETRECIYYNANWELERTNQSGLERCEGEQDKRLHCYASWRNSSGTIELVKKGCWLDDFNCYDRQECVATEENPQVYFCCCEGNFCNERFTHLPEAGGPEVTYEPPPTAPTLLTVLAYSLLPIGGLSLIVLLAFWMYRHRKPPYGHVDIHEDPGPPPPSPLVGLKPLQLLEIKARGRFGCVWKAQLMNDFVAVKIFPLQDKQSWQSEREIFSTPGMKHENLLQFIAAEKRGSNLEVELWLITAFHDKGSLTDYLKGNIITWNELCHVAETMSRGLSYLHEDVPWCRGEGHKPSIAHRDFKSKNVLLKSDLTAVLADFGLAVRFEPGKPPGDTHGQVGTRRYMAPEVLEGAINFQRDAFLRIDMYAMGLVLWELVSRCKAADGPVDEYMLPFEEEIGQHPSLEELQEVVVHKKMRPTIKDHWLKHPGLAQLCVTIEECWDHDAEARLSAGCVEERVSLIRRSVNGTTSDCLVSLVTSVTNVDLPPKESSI"}, "CDK3": {"molecular_target": "T34, CDK3 (Homo sapiens, UniProt Q00526)", "T34 construct": "purchased Eurofins DiscoverX KINOMEscan"}, "[2]": {"molecular_target": "T35, RPS6KA4(Kin.Dom.1-N-terminal) (Homo sapiens, UniProt O75676)", "T35 construct": "RPS6KA4(Kin.Dom.1-N-terminal); purchased Eurofins DiscoverX KINOMEscan"}, "PYK2": {"molecular_target": "T36, PYK2 (Homo sapiens, UniProt Q14289)", "T36 construct": "purchased Eurofins DiscoverX KINOMEscan"}, "CAMK1B": {"molecular_target": "T37, CAMK1B (Homo sapiens, UniProt Q6P2M8)", "T37 construct": "purchased Eurofins DiscoverX KINOMEscan"}, "KIT(V559D,T670I)": {"molecular_target": "T38, KIT(V559D,T670I) (Homo sapiens, UniProt P10721, T670I/V559D)", "T38 construct": "purchased Eurofins DiscoverX KINOMEscan", "T38 sequence (P10721 26-976 V559D/T670I)": "as the sequence (P10721 26-976 L576P) above, with V534D, P551L, T645I counted along it"}, "CAMK1D": {"molecular_target": "T39, CAMK1D (Homo sapiens, UniProt Q8IU85)", "T39 construct": "purchased Eurofins DiscoverX KINOMEscan"}, "CDKL5": {"molecular_target": "T40, CDKL5 (Homo sapiens, UniProt O76039)", "T40 construct": "purchased Eurofins DiscoverX KINOMEscan", "T40 sequence (O76039 whole entry)": "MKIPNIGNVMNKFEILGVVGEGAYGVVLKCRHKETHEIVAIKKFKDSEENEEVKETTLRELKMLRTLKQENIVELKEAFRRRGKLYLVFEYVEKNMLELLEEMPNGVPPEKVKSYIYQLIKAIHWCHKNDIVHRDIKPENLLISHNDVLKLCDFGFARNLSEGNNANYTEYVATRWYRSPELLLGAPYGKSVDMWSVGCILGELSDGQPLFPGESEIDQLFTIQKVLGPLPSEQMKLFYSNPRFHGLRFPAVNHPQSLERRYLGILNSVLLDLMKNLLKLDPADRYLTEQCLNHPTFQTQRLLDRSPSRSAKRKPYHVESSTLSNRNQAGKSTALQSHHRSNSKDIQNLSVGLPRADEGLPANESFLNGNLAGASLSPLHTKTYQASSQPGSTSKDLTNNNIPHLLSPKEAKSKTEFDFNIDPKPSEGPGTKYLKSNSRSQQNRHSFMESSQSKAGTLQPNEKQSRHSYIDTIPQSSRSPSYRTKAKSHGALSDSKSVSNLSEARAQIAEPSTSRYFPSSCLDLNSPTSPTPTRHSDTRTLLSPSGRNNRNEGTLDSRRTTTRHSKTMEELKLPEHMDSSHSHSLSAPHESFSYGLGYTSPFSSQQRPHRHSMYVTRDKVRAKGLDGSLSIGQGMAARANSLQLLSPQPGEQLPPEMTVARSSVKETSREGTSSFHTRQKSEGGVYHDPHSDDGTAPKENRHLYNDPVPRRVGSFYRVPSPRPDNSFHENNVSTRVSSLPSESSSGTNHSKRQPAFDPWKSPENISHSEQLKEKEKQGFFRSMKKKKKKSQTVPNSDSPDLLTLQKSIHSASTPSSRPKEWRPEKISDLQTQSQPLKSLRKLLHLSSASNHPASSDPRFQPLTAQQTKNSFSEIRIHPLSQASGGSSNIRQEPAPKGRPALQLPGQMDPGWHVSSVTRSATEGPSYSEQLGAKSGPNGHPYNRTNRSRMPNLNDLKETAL"}, "ICK": {"molecular_target": "T41, ICK (Homo sapiens, UniProt Q9UPZ9)", "T41 construct": "purchased Eurofins DiscoverX KINOMEscan", "T41 sequence (Q9UPZ9 whole entry)": "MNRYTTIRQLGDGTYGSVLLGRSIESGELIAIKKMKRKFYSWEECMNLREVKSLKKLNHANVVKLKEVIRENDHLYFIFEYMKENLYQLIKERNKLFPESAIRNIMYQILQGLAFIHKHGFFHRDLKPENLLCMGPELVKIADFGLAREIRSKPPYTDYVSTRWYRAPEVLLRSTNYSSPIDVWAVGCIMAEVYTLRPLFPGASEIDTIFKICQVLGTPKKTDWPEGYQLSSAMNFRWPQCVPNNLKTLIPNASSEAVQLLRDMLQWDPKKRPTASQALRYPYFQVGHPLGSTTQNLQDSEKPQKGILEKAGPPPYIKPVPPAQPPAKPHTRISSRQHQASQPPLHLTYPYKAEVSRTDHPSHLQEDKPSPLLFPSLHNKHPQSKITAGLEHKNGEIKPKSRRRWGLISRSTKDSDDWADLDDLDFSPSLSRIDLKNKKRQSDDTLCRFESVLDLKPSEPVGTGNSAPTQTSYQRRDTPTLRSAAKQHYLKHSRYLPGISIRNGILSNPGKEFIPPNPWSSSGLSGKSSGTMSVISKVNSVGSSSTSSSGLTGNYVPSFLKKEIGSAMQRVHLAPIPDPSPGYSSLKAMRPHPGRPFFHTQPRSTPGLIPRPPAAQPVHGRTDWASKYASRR"}},
  "data": [
    {"smiles": "CC(C)NC(=O)COc1cccc(-c2nc(Nc3ccc4[nH]ncc4c3)c3ccccc3n2)c1", "note": "[KD025, 2-(3-(4-((1H-indazol-5-yl)amino)quinazolin-2-yl)phenoxy)-N-isopropylacetamide]", "values": [
      {"measurement": "remaining binding at 10 µM", "setting": "SRPK1", "result": 7, "unit": "%"},
      {"measurement": "remaining binding at 10 µM", "setting": "BLK", "result": 11, "unit": "%"},
      {"measurement": "remaining binding at 10 µM", "setting": "CDC2L5", "result": 100, "unit": "%"},
      {"measurement": "remaining binding at 10 µM", "setting": "PRP4", "result": 15, "unit": "%"},
      {"measurement": "remaining binding at 10 µM", "setting": "FLT3(D835H)", "result": 22, "unit": "%"},
      {"measurement": "remaining binding at 10 µM", "setting": "TTK", "result": 28, "unit": "%"},
      {"measurement": "remaining binding at 10 µM", "setting": "[1]", "result": 39, "unit": "%"},
      {"measurement": "remaining binding at 10 µM", "setting": "FLT3(D835Y)", "result": 46, "unit": "%"},
      {"measurement": "remaining binding at 10 µM", "setting": "FLT3(K663Q)", "result": 55, "unit": "%"},
      {"measurement": "remaining binding at 10 µM", "setting": "RIOK2", "result": 60, "unit": "%"},
      {"measurement": "remaining binding at 10 µM", "setting": "LKB1", "result": 63, "unit": "%"},
      {"measurement": "remaining binding at 10 µM", "setting": "DYRK1B", "result": 64, "unit": "%"},
      {"measurement": "remaining binding at 10 µM", "setting": "NEK3", "result": 64, "unit": "%"},
      {"measurement": "remaining binding at 10 µM", "setting": "JNK2", "result": 66, "unit": "%"},
      {"measurement": "remaining binding at 10 µM", "setting": "PFCDPK1(P.falciparum)", "result": 66, "unit": "%"},
      {"measurement": "remaining binding at 10 µM", "setting": "CAMK2D", "result": 71, "unit": "%"},
      {"measurement": "remaining binding at 10 µM", "setting": "LIMK2", "result": 73, "unit": "%"},
      {"measurement": "remaining binding at 10 µM", "setting": "NDR1", "result": 73, "unit": "%"},
      {"measurement": "remaining binding at 10 µM", "setting": "KIT(L576P)", "result": 74, "unit": "%"},
      {"measurement": "remaining binding at 10 µM", "setting": "PAK3", "result": 77, "unit": "%"},
      {"measurement": "remaining binding at 10 µM", "setting": "JNK3", "result": 78, "unit": "%"},
      {"measurement": "remaining binding at 10 µM", "setting": "PIK3CA(E542K)", "result": 78, "unit": "%"},
      {"measurement": "remaining binding at 10 µM", "setting": "DCAMKL1", "result": 79, "unit": "%"},
      {"measurement": "remaining binding at 10 µM", "setting": "NLK", "result": 80, "unit": "%"},
      {"measurement": "remaining binding at 10 µM", "setting": "YANK1", "result": 80, "unit": "%"},
      {"measurement": "remaining binding at 10 µM", "setting": "TNK2", "result": 82, "unit": "%"},
      {"measurement": "remaining binding at 10 µM", "setting": "PKNB(M.tuberculosis)", "result": 83, "unit": "%"},
      {"measurement": "remaining binding at 10 µM", "setting": "BRAF", "result": 85, "unit": "%"},
      {"measurement": "remaining binding at 10 µM", "setting": "DYRK2", "result": 86, "unit": "%"},
      {"measurement": "remaining binding at 10 µM", "setting": "PIK3CA(C420R)", "result": 86, "unit": "%"},
      {"measurement": "remaining binding at 10 µM", "setting": "WNK2", "result": 88, "unit": "%"},
      {"measurement": "remaining binding at 10 µM", "setting": "BMPR1A", "result": 89, "unit": "%"},
      {"measurement": "remaining binding at 10 µM", "setting": "ACVR2B", "result": 91, "unit": "%"},
      {"measurement": "remaining binding at 10 µM", "setting": "CDK3", "result": 92, "unit": "%"},
      {"measurement": "remaining binding at 10 µM", "setting": "[2]", "result": 94, "unit": "%"},
      {"measurement": "remaining binding at 10 µM", "setting": "PYK2", "result": 95, "unit": "%"},
      {"measurement": "remaining binding at 10 µM", "setting": "CAMK1B", "result": 97, "unit": "%"},
      {"measurement": "remaining binding at 10 µM", "setting": "KIT(V559D,T670I)", "result": 98, "unit": "%"},
      {"measurement": "remaining binding at 10 µM", "setting": "CAMK1D", "result": 100, "unit": "%"},
      {"measurement": "remaining binding at 10 µM", "setting": "CDKL5", "result": 100, "unit": "%"},
      {"measurement": "remaining binding at 10 µM", "setting": "ICK", "result": 100, "unit": "%"}
    ]}
  ]
}
